Data taken from US12185723B2, “Herbicidally active 3-phenylisoxazoline-5-carboxamides of s-containing cyclopentenylcarboxylic esters” (Bayer Aktiengesellschaft, priority 2019, dated 2025).

Tests used:
Assay type in all cases: in vivo
[1] = test system: Echinochloa crus-galli; assay: Post-emergence herbicidal action against ECHCG; details: visual rating about 3 weeks after treatment
Procedure: (§1) Post-Emergence Herbicidal Action Against Harmful Plants and Crop Plant Compatibility Seeds of monocotyledonous and dicotyledonous weeds and crop plants are placed in sandy loam in plastic or wood-fibre pots, covered with soil and cultivated in a greenhouse under controlled growth conditions. 2 to 3 weeks after sowing, the test plants are treated at the one-leaf stage. The compounds of the invention, formulated in the form of wettable powders (WP) or as emulsion concentrates (EC), are then sprayed onto the green parts of the plants as aqueous suspension or emulsion with addition of 0.5% additive at a water application rate of 600 l/ha (converted). After the test plants have been kept in the greenhouse under optimum growth conditions for about 3 weeks, the activity of the preparations is rated visually in comparison to untreated controls. For example, 100% activity=the plants have died, 0% activity=like control plants. [table]

[2] = test system: Alopecurus myosuroides; assay: Post-emergence herbicidal action against ALOMY; details: visual rating about 3 weeks after treatment
Procedure: as §1

[3] = test system: Hordeum murinum; assay: Post-emergence herbicidal action against HORMU
Procedure: as §1

[4] = test system: Stellaria media; assay: Post-emergence herbicidal action against STEME; details: 80 g a.i./ha
Procedure: as §1

[5] = test system: Lolium rigidum; assay: Post-emergence herbicidal action against LOLRI; details: visual rating about 3 weeks after treatment
Procedure: as §1

[6] = test system: Setaria viridis; assay: Post-emergence herbicidal action against SETVI; details: visual rating about 3 weeks after treatment
Procedure: as §1

[7] = test system: Veronica persica; assay: Post-emergence herbicidal action against VERPE
Procedure: as §1

[8] = test system: Avena fatua; assay: Post-emergence herbicidal action against AVEFA; details: visual rating about 3 weeks after treatment
Procedure: as §1

[9] = test system: Matricaria inodora; assay: Post-emergence herbicidal action against MATIN; details: 20 g a.i./ha
Procedure: as §1

[10] = test system: Pharbitis purpurea; assay: Post-emergence herbicidal action against PHBPU; details: 20 g a.i./ha
Procedure: as §1

[11] = test system: Polygonum convolvulus; assay: Post-emergence herbicidal action against POLCO; details: 20 g a.i./ha
Procedure: as §1

[12] = test system: Amaranthus retroflexus; assay: Post-emergence herbicidal action against AMARE; details: 20 g a.i./ha
Procedure: as §1

[13] = test system: Abutilon theophrasti; assay: Post-emergence herbicidal action against ABUTH; details: 20 g a.i./ha, visual rating about 3 weeks after treatment
Procedure: as §1

[14] = test system: DIGSA; assay: Post-emergence herbicidal action against DIGSA; details: 20 g a.i./ha, visual rating about 3 weeks after treatment
Procedure: as §1, with “plants.” for “plants. [table]”

SMILES | Herbicidal action against [%] VERPE ([7]; 20 g a.i./ha) | Herbicidal action against [%] MATIN [9] | Herbicidal action against [%] ECHCG ([1]; 20 g a.i./ha) | Herbicidal action against [%] PHBPU [10] | Herbicidal action against [%] POLCO [11] | Herbicidal action against [%] ALOMY ([2]; 20 g a.i./ha) | Herbicidal action against [%] LOLRI ([5]; 20 g a.i./ha) | Herbicidal action against [%] AVEFA ([8]; 20 g a.i./ha) | Herbicidal action against [%] AMARE [12] | Herbicidal action against [%] ABUTH [13] | Herbicidal action against [%] SETVI ([6]; 20 g a.i./ha) | Herbicidal action against [%] DIGSA [14] | further results
C=CC1(C(=O)NC2C=CC(C(=O)OCCSC)C2)CC(c2cc(C)cc(C)c2)=NO1 (mixture of isomers) [Example I-45] | 80% |  |  |  |  |  |  |  |  |  |  |  | Herbicidal action against [%] ECHCG ([1]; 80 g a.i./ha): 80%; Herbicidal action against [%] ALOMY ([2]; 80 g a.i./ha): 90%; Herbicidal action against [%] HORMU ([3]; 20 g a.i./ha): 80%; Herbicidal action against [%] HORMU ([3]; 80 g a.i./ha): 80%; Herbicidal action against [%] STEME [4]: 90%; Herbicidal action against [%] LOLRI ([5]; 80 g a.i./ha): 90%; Herbicidal action against [%] SETVI ([6]; 80 g a.i./ha): 80%; Herbicidal action against [%] VERPE ([7]; 80 g a.i./ha): 80%; Herbicidal action against [%] AVEFA ([8]; 80 g a.i./ha): 80%
C[S+]([O-])CCOC(=O)C1C=CC(NC(=O)C2(C)CC(c3cc(F)cc(F)c3)=NO2)C1 (mixture of isomers) [Example I-66] |  | 80% | 80% | 80% | 80% | 90% | 80% | 80% | 80% |  |  |  | 
CCS(=O)(=O)CCOC(=O)C1C=CC(NC(=O)C2(C)CC(c3cc(F)cc(F)c3)=NO2)C1 (stereo not drawn) [Example I-01] | 80% |  | 90% | 80% | 90% | 90% | 100% | 90% | 90% | 90% | 90% | 90% | 
CCSCCOC(=O)C1C=CC(NC(=O)C2(C)CC(c3cc(F)cc(F)c3)=NO2)C1 (stereo not drawn) [Example I-02] | 90% | 80% | 90% | 80% | 90% | 100% | 90% | 90% | 90% | 90% | 90% | 90% | 
CC1(C(=O)NC2C=CC(C(=O)OCCSCc3ccc(F)cc3)C2)CC(c2cc(F)cc(F)c2)=NO1 (stereo not drawn) [Example I-09] | 90% |  | 90% | 80% | 80% | 90% | 90% | 90% | 90% | 80% | 90% | 90% | 
CC1(C(=O)NC2C=CC(C(=O)OCCSCC(F)(F)F)C2)CC(c2cc(F)cc(F)c2)=NO1 (stereo not drawn) [Example I-12] |  | 80% | 80% | 80% | 80% | 90% | 80% |  |  |  | 80% | 80% | 
CC1(C(=O)NC2C=CC(C(=O)OCCSC(F)(F)F)C2)CC(c2cc(F)cc(F)c2)=NO1 (stereo not drawn) [Example I-13] | 80% | 80% |  |  |  | 90% | 80% | 90% |  | 80% | 80% | 80% | 
CC1(C(=O)NC2C=CC(C(=O)OCCSc3ccccc3)C2)CC(c2cc(F)cc(F)c2)=NO1 (stereo not drawn) [Example I-16] | 80% | 80% | 80% | 80% | 80% | 90% |  | 90% |  | 80% | 80% | 80% | 
